Source: patent US8129337B2, “Compositions comprising epigallocatechin gallate and protein hydrolysate” (DSM IP Assets B.V., priority 2005, dated 2012)

Test system: db/db mice
Experiment: Pathologically changed islets of Langerhans in pancreata of db/db mice after 10 weeks of diet
Assay type: in vivo, mouse
Settings: 10 weeks of feeding the diet
Description: Diets containing EGCG, or protein hydrolysate, or the combination of EGCG and protein hydrolysate, or placebo were administered to db/db mice (6 weeks old). The db/db mouse model of severe type 2 diabetes mellitus is well established and commonly used to assess the antidiabetic properties of nutritional or pharmaceutical interventions. Furthermore, the animals are characterized by a progressive loss of pancreatic function and pathological changes of pancreatic histology and morphology. The pancreatic damage occurring in db/db mice is the consequence of high blood glucose and lipid levels. After 10 weeks of administration of the respective diets pancreata of all mice were removed and assessed for pathologically changed islets of Langerhans.

O=C(O[C@@H]1Cc2c(O)cc(O)cc2O[C@@H]1c1cc(O)c(O)c(O)c1)c1cc(O)c(O)c(O)c1 [EGCG, epigallocatechin gallate]
Pathological islets (in % of total islets) (db/db mice (6 weeks old at start), n = 9 per group, means ± SEM): 36.5 ± 4.1 % of total islets | Effect on pathologically changed islets of Langerhans compared to placebo (in words) (db/db mice): less pathologically changed islets of Langerhans compared to placebo
